From US20050101595A1, “N-containing cycloalkyl-substituted amino-thiazole derivatives and pharmaceutical compositions for inhibiting cell proliferation and methods for their use” (PFIZER INC., priority 2003, published 2005)
Counter-ions that a name gives are not always drawn. Like-named read-outs stand apart in the source and are kept apart here.

How the values were obtained:
HCT-116 cell line = assay: Inhibition of cell growth, tetrazolium salt (MTT) assay; format: cell-based; conditions: for IC50: Homo sapiens, HCT-116, 120 h, MTT, three to five days, read-out: HCT-116 IC50; for HCT-116 % Inhibition at 0.25 μM: 0.25 μM compound
Procedure, shortened: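 Growth inhibition is scored relative to cells receiving only 0.5% (v/v) DMSO. Plated cells rest 4 h, then take compound for three to five days at 37° C; MTT reduction to formazan is read at 540 nm.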

CDK2/Cyclin A = CDK2/Cyclin A (Homo sapiens, UniProt P24941); assay: Inhibition of CDK2/Cyclin A Retinoblastoma Kinase Activity; format: biochemical; conditions: for Ki: apparent Ki, CDK2/proteolyzed cyclin A, Rb fragment substrate, 25 μM ATP; for CDK2 % Inhibition At 0.03 μM: Table 2
Procedure, shortened: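 Human CDK2, baculovirus/insect-cell expressed, complexed with proteolyzed cyclin A (10 nM or 19 nM CDK2) phosphorylates an Rb fragment with 25 μM [32P/33P]ATP at pH 7.4, 30° C, for 60 or 75 minutes under initial-rate conditions. Filter-captured radioactivity is read by phosphorimager; apparent Ki from competitive-inhibition fits.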

[1] = molecular target: human CDK4 and genetically truncated (1-264) cyclin D3 (Homo sapiens, UniProt P11802); assay: Inhibition of CDK4/Cyclin D Retinoblastoma Kinase Activity; format: biochemical; conditions: for Ki: apparent Ki, CDK4/truncated cyclin D3, Rb fragment substrate, 25 μM ATP
Sequence of human CDK4 and genetically truncated (1-264) cyclin D3 (P11802 whole entry, the tested form may be a part): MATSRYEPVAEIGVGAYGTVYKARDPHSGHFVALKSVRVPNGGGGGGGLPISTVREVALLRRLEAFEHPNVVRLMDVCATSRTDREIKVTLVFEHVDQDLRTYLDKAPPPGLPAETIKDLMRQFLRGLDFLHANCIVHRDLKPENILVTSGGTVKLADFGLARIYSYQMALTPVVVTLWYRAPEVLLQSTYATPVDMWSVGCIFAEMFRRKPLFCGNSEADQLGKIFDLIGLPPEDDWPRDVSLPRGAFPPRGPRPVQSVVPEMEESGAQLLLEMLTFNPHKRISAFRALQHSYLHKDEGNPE
Sequence of human CDK4 and genetically truncated (1-264) cyclin D3 (P30281 1-264 partner): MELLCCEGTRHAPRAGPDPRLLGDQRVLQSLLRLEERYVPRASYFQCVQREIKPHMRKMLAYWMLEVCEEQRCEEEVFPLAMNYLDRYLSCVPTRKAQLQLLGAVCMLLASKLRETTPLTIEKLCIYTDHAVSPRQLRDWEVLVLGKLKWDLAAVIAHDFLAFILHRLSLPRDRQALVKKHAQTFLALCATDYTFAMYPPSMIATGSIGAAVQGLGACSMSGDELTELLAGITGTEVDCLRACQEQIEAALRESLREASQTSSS
Procedure, shortened: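 Read-out: 32P/33P incorporation into Rb fragment (386-928) captured on nitrocellulose, phosphorimager. Enzyme 5 nM CDK4/cyclin D3(1-264) from insect cells; ATP 25 μM, pH 7.4, 30 °C, 20 min (60 min for tight binders). Ki from competitive fits.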

[2] = 0.1 μM compound, HCT-116, Table 4
[3] = 0.1 μM compound, HCT-116, Table 3

| IC50 (HCT-116 cell line; first HCT-116 column (c4)) | IC50 (HCT-116 cell line; second HCT-116 column (c5)) | Ki (CDK2/Cyclin A) | Ki [1] | CDK2 % Inhibition at 0.03 μM (CDK2/Cyclin A; at 0.03 μM) | CDK4 % Inhibition at 0.03 μM ([1]; at 0.03 μM) | SMILES | HCT-116 % Inhibition at 0.1 μM (HCT-116 cell line; HCT-116 cells, at 0.1 μM) | HCT-116 5 Inhibition at 0.25 μM (HCT-116 cell line; HCT-116 cells) | also measured |
| --- | --- | --- | --- | --- | --- | --- | --- | --- | --- |
|  |  |  |  | 8% | 11% | Nc1nc(NC2CCN(C(=O)CC3C=CCC3)CC2)sc1C(=O)c1c(F)cccc1F (stereo not shown) [Example R98] | 0% | 44 |  |
|  |  |  |  | 21% | 17% | Nc1nc(NC2CCN(C(=O)c3ccc(F)cc3C(F)(F)F)CC2)sc1C(=O)c1c(F)cccc1F [Example R36] | 0% | 51 |  |
|  |  |  |  | −73% | 2% | Nc1nc(NC2CCN(C(=O)c3cccnc3Sc3ccc(Cl)cc3)CC2)sc1C(=O)c1c(F)cccc1F [Example R43] | 4% | 46 |  |
|  |  |  |  | 50% | 75% | Nc1nc(NC2CCN(C(=O)c3cccc(C(F)(F)F)c3)CC2)sc1C(=O)c1c(F)cccc1F [Example R139] | 20% | 62 |  |
|  |  |  |  | −9% | −2% | Nc1nc(NC2CCN(C(=O)[C@@H]3C[C@H]3c3ccccc3)CC2)sc1C(=O)c1c(F)cccc1F (relative stereo) [Example R92] | 0% | 40 |  |
|  |  |  |  | 26% | 13% | Cc1ccc(S(=O)(=O)N[C@@H](Cc2ccccc2)C(=O)N2CCC(Nc3nc(N)c(C(=O)c4c(F)cccc4F)s3)CC2)cc1 [Example R75] | 0% | 41 |  |
|  |  |  |  | 11% | 12% | CC(C)S(=O)(=O)c1csc(C(=O)N2CCC(Nc3nc(N)c(C(=O)c4c(F)cccc4F)s3)CC2)c1 [Example R63] | 0% | 38 |  |
|  |  |  |  | 28% | 20% | Cc1cc(C)c(C(=O)N2CCC(Nc3nc(N)c(C(=O)c4c(F)cccc4F)s3)CC2)c(C)c1 [Example R127] | 0% | 36 |  |
|  |  |  |  | 14% | 8% | Nc1nc(NC2CCN(C(=O)c3c(Cl)cc(Cl)cc3Cl)CC2)sc1C(=O)c1c(F)cccc1F [Example R56] | 0% | 43 |  |
|  |  |  |  | −5% | −4% | CC1(C(=O)N2CCC(Nc3nc(N)c(C(=O)c4c(F)cccc4F)s3)CC2)CCCCC1 [Example R99] | 5% | 49 |  |

More lines, now with the values behind:

| SMILES | IC50 (HCT-116 cell line; first HCT-116 column (c4)) | IC50 (HCT-116 cell line; second HCT-116 column (c5)) | Ki (CDK2/Cyclin A) | Ki [1] | CDK2 % Inhibition at 0.03 μM (CDK2/Cyclin A; at 0.03 μM) | CDK4 % Inhibition at 0.03 μM ([1]; at 0.03 μM) | HCT-116 % Inhibition at 0.1 μM (HCT-116 cell line; HCT-116 cells, at 0.1 μM) | HCT-116 5 Inhibition at 0.25 μM (HCT-116 cell line; HCT-116 cells) | also measured |
| --- | --- | --- | --- | --- | --- | --- | --- | --- | --- |
| Nc1nc(NC2CCN(S(=O)(=O)CCCN3CCC3)CC2)sc1C(=O)c1c(F)cccc1F [Example K19, 1-{4-Amino-2-[1-(3-azetidin-1-yl-propane-1-sulfonyl)-piperidin-4-ylamino]-thiazol-5-yl}-1-(2,6-difluoro-phenyl)-methanone.] | 0.81 µM | > 5 µM | 0.0013 µM | 0.002 µM |  |  |  |  |  |
| Nc1nc(NC2CCN(S(=O)(=O)c3ccc(Br)s3)CC2)sc1C(=O)c1c(F)cccc1F [Example F50, 1-{4-Amino-2-[1-(5-bromo-thiophene-2-sulfonyl)-piperidin4-ylamino]-thiazol-5-yl}1-(2,6-difluoro-phenyl)-methanone] | 0.28 µM | 2.6 µM | 0.0011 µM | 0.0032 µM |  |  |  |  |  |
| Nc1nc(NC2CCN(C(=O)c3ccccc3Cl)CC2)sc1C(=O)c1c(F)cccc1F [Example Q13] |  |  |  |  |  |  |  |  | HCT-116 % Inhibition at 0.1 μM (HCT-116 cell line; [2]): 5%; HCT-116 % Inhibition at 0.25 μM (HCT-116 cell line; HCT-116, Table 4): 43%; CDK2 % Inhibition at 0.03 μM (CDK2/Cyclin A; 0.03 μM compound, Table 4): 13%; CDK4 % Inhibition at 0.03 μM ([1]; 0.03 μM compound, Table 4): 48% |
| CN(C)c1ccc(NC(=O)N2CCC(Nc3nc(N)c(C(=O)c4c(F)cccc4F)s3)CC2)cc1 [Example B2, 4-[4-Amino-5-(2,6-difluoro-benzoyl)-thiazol-2-ylamino]-piperidine-1-carboxylic Acid (4-Dimethylamino-phenyl)-amide] | 0.35 µM | 0.95 µM | 0.028 µM | 0.11 µM |  |  |  |  |  |
| Nc1nc(NC2CCN(S(=O)(=O)c3ccc(CCN4C[C@@H]5[C@@H](N)[C@@H]5C4)nc3)CC2)sc1C(=O)c1c(F)cccc1F [Example N10, [4-Amino-2-(1-{6-[2-(1α, 5β, 6γ-amino-3-aza-bicyclo[3.1.0]hex-3-yl)-ethyl]-pyridine-3-sulfonyl}-piperidin-4-ylamino)-thiazol-5-yl]-(2,6-difluoro-phenyl)-methanone Hydrochloride Salt.] | 0.38 µM | 3 µM | 0.0013 µM | 0.00021 µM |  |  |  |  |  |
| Nc1nc(NC2CCN(S(=O)(=O)CCSC3CCCC3)CC2)sc1C(=O)c1c(F)cccc1F [Example K38, {4-Amino-2-[1-(2-cyclopentylsulfanyl-ethanesulfonyl)-piperidin-4-ylamino]-thiazol-5-yl}-(2,6-difluoro-phenyl)-methanone Trifluoroacetic Acid Salt.] | 0.46 µM | 3 µM | 0.0079 µM | 0.0064 µM |  |  |  |  |  |
| Nc1nc(NC2CCN(S(=O)(=O)c3ccc(CNC(=O)c4ccccc4)s3)CC2)sc1C(=O)c1c(F)cccc1F [Example P40] |  |  |  |  |  |  |  |  | HCT-116 % Inhibition at 0.1 μM (HCT-116 cell line; [3]): 7%; HCT-116 % Inhibition at 0.25 μM (HCT-116 cell line; HCT-116, Table 3): 33%; CDK2 % Inhibition at 0.03 μM (CDK2/Cyclin A; 0.03 μM compound, Table 3): 61%; CDK4 % Inhibition at 0.03 μM ([1]; 0.03 μM compound, Table 3): 64% |
| Cc1ccccc1C(=O)N1CCC(Nc2nc(N)c(C(=O)c3c(F)cccc3F)s2)CC1 [Example Q17] |  |  |  |  |  |  |  |  | HCT-116 % Inhibition at 0.1 μM (HCT-116 cell line; [2]): 2%; HCT-116 % Inhibition at 0.25 μM (HCT-116 cell line; HCT-116, Table 4): 34%; CDK2 % Inhibition at 0.03 μM (CDK2/Cyclin A; 0.03 μM compound, Table 4): −11%; CDK4 % Inhibition at 0.03 μM ([1]; 0.03 μM compound, Table 4): 45% |
| CS(=O)(=O)c1ccc(S(=O)(=O)N2CCC(Nc3nc(N)c(C(=O)c4c(F)cccc4F)s3)CC2)cc1 [Example P80] |  |  |  |  |  |  |  |  | HCT-116 % Inhibition at 0.1 μM (HCT-116 cell line; [3]): 15%; HCT-116 % Inhibition at 0.25 μM (HCT-116 cell line; HCT-116, Table 3): 29%; CDK2 % Inhibition at 0.03 μM (CDK2/Cyclin A; 0.03 μM compound, Table 3): 81%; CDK4 % Inhibition at 0.03 μM ([1]; 0.03 μM compound, Table 3): 73% |
| Nc1nc(NC2CCN(C(=O)Nc3cccc(C(F)(F)F)c3)CC2)sc1C(=O)c1c(F)cccc1F [Example O16] |  |  |  |  |  |  |  |  | HCT-116 % Inhibition at 0.25 μM (HCT-116 cell line; HCT-116, Table 2): 6%; CDK2 % Inhibition At 0.03 μM (CDK2/Cyclin A; 0.03 μM compound): 34%; CDK4 % Inhibition at 0.03 μM ([1]; 0.03 μM compound, Table 2): 5% |
| N#Cc1ccc(NC(=O)N2CCC(Nc3nc(N)c(C(=O)c4c(F)cccc4F)s3)CC2)cc1 [Example O56] |  |  |  |  |  |  |  |  | HCT-116 % Inhibition at 0.25 μM (HCT-116 cell line; HCT-116, Table 2): 37%; CDK2 % Inhibition At 0.03 μM (CDK2/Cyclin A; 0.03 μM compound): 29%; CDK4 % Inhibition at 0.03 μM ([1]; 0.03 μM compound, Table 2): 9% |
| Nc1nc(NC2CCN(S(=O)(=O)c3ccc(NCCO)nc3)CC2)sc1C(=O)c1c(F)cccc1F [Example G3, 1-(4-Amino-2{1-[6-(2-hydroxy-ethylamino)-pyridine-3-sulfonyl]-piperidin-4-ylamino}-thiazol-5-yl)-1-(2,6-difluoro-phenyl)-methanone] | 1.7 µM | > 5 µM | < 0.001 µM | 0.0012 µM |  |  |  |  |  |
| Cc1ccc(S(=O)(=O)N2CCC(Nc3nc(N)c(C(=O)c4c(F)cccc4F)s3)CC2)cc1 [Example F15, {4-Amino-2-[1-(toluene-4-sulfonyl)-piperidin-4-ylamino]-thiazol-5-yl}-(2,6-difluoro-phenyl)-methanone] | 0.41 µM | 1.2 µM | 0.0028 µM | 0.0034 µM |  |  |  |  |  |
| Nc1nc(NC2CCN(S(=O)(=O)c3ccc(Cc4ncc[nH]4)nc3)CC2)sc1C(=O)c1c(F)cccc1F [Example I4, 1-(4-Amino-2-{1-[6-(1H-imidazol-2-ylmethyl)-pyridine-3-sulfonyl]-piperidin-4-ylamino}-thiazol-5-yl)-1-(2,6-difluoro-phenyl)-methanone Hydrochloride] | 1.9 µM | 4.7 µM | < 0.001 µM | 0.0018 µM |  |  |  |  |  |
| CCc1cc(Br)ccc1S(=O)(=O)N1CCC(Nc2nc(N)c(C(=O)c3c(F)cccc3F)s2)CC1 [Example P78] |  |  |  |  |  |  |  |  | HCT-116 % Inhibition at 0.1 μM (HCT-116 cell line; [3]): 27%; HCT-116 % Inhibition at 0.25 μM (HCT-116 cell line; HCT-116, Table 3): 23%; CDK2 % Inhibition at 0.03 μM (CDK2/Cyclin A; 0.03 μM compound, Table 3): 17%; CDK4 % Inhibition at 0.03 μM ([1]; 0.03 μM compound, Table 3): 24% |
| Nc1nc(NC2CCN(S(=O)(=O)CCCN3CC=CCC3)CC2)sc1C(=O)c1c(F)cccc1F [Example K11, 1-(4-Amino-2-{1-[3-(3,6-dihydro-2H-pyridin-1-yl)propane-1-sulfonyl]-piperidin-4-ylamino}-thiazol-5-yl)-1-(2,6-difluoro-phenyl)-methanone.] | 0.13 µM | 1.3 µM | 0.0029 µM | 0.0018 µM |  |  |  |  |  |
| Nc1nc(NC2CCN(C(=O)n3ccnc3)CC2)sc1C(=O)c1c(F)cccc1F [Example C17, {4-[4-Amino-5-(2,6-difluoro-benzoyl)-thiazol-2-ylamino]-piperidin-1-yl}-imidazol-1-yl-methanone] | 2.1 µM | 4.4 µM | 0.017 µM | 0.021 µM |  |  |  |  |  |
